One block for each compound: values may come before it.
Columns and labels:
Type in all cases: biochemical
[1] = target: T1, PDGFRB (Homo sapiens, UniProt P09619); test: Z'-Lyte FRET kinase assay (Invitrogen), PDGFRB; conditions: read-out: IC50, activity toward kinase PDGFRB
T1 construct: purchased Invitrogen (Carlsbad, Calif.), screening service
Source text: (§1) The effect of potential modulators of kinase activity can be measured in a variety of different assays known in the art. For example, direct radiometric, indirect FRET or AlphaScreen assays may be used to assess the level of phosphorylation of a substrate in the presence of test compounds in order to determine the inhibitory affect of the compound on the kinase. Invitrogen (Carlsbad, Calif.) uses a FRET based assay for Btk, EGFR, EphB2, Flt3, lrak4, Kdr, MAP2K1, MAPKAPK2, PDGFRB, PKC theta, Stk6 and Yes. For these assays, compounds of the invention were screened by Invitrogen using Z′-Lyte™ kinase assay.
Briefly, the Invitrogen kinase assay involves use of a specific peptide substrate optimized for each kinase, containing a fluorophore at each end that make up the FRET pair. The peptide sensitivity to proteolytic cleavage depends on phosphorylation of the peptide. […] The extent of phosphorylation is determined from the emission ratio, which is low when the kinase is active (phosphorylated peptide is not cleaved, FRET pair connected) or higher for inhibited kinase (non-phosphorylated peptide is cleaved, FRET pair separated). […] Reaction conditions for each kinase are determined to provide optimal reaction times, incubation temperature, kinase and ATP concentrations. […] The fluorescence signals are measured to determine the emission ratio.

[2] = target: EphA2 (Homo sapiens, UniProt P29317); test: AlphaScreen kinase assay, EphA2; conditions: read-out: IC50, activity toward kinase EphA2
EphA2, sequence (P29317 24-976): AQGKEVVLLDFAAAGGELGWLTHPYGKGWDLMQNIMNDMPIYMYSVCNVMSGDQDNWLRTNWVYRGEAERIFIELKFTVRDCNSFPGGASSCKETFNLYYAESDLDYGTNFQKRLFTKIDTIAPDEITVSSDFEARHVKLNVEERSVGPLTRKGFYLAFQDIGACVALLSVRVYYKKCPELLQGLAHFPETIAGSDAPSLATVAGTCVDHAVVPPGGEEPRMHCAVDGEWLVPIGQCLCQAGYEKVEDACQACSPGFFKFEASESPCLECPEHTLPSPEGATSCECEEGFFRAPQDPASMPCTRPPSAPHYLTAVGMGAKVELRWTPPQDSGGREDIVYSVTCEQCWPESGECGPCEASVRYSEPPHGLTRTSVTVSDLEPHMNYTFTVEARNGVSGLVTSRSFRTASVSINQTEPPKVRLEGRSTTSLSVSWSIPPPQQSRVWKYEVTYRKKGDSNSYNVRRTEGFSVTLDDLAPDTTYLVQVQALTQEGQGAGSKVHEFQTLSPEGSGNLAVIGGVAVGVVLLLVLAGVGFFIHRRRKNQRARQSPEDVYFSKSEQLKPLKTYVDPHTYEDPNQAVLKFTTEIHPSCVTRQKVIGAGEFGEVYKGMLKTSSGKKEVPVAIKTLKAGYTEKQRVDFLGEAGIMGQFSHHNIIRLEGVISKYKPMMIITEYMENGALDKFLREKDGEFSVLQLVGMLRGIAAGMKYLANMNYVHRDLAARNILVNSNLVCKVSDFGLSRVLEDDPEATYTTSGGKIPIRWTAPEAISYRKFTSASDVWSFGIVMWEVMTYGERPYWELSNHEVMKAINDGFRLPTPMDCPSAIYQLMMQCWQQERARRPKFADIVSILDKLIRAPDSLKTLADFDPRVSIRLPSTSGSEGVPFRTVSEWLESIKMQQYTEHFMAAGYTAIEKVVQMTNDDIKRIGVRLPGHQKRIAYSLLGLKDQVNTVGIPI
Source text: (§2) AlphaScreen assay was used to screen additional kinases. The assay is similarly dependent on the phosphorylation of a peptide substrate. In this assay, an antibody that recognizes phosphorylated substrate is bound to an acceptor bead. The peptide substrate is attached to biotin, which binds to a donor head that contains streptavidin. Thus phosphorylated substrate is bound by antibody and streptavidin, bringing the donor and acceptor heads into close proximity when kinase is not inhibited. The donor produces singlet oxygen which results in emission from the acceptor when they are in close proximity. Conversely, when kinase is inhibited, the donor and acceptor beads are not associated and the emission from the acceptor is reduced.
(§3) AlphaScreen assays were done using compounds dissolved in DMSO to a concentration of 20 mM. The compounds were diluted accordingly to the desired final concentrations in each sample well, using 1:3 serial dilution for a total of 8 concentration points.

[3] = target: EphB4 (Homo sapiens, UniProt P54760); test: AlphaScreen kinase assay, EphB4; conditions: read-out: IC50, activity toward kinase EphB4
EphB4, sequence (P54760 16-987): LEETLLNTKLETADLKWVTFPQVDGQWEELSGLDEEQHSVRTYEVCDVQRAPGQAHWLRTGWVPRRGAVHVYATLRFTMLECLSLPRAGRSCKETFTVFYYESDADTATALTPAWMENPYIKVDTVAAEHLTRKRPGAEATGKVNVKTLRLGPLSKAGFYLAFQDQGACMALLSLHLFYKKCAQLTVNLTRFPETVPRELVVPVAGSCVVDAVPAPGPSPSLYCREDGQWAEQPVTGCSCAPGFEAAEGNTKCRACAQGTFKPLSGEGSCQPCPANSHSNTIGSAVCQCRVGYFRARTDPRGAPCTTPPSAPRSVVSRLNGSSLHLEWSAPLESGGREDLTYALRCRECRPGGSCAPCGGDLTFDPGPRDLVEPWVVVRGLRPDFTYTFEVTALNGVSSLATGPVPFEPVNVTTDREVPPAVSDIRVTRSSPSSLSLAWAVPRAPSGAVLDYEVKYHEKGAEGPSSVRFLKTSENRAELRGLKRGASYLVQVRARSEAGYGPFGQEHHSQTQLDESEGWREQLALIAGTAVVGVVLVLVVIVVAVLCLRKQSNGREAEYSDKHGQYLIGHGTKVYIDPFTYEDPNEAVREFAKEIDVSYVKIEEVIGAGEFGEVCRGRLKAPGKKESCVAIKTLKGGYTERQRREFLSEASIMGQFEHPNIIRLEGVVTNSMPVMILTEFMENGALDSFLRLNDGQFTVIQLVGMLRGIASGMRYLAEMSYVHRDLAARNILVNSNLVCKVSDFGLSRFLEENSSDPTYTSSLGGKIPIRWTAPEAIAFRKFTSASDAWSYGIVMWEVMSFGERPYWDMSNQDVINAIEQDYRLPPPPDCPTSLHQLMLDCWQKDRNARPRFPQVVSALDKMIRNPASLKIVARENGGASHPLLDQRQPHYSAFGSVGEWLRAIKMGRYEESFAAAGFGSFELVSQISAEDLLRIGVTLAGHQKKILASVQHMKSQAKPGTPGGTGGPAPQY
Source text: as §2, §3

[4] = target: MLK1 (Homo sapiens, UniProt P80192); test: AlphaScreen kinase assay, MLK1; conditions: read-out: IC50, activity toward kinase MLK1
MLK1, sequence (P80192 whole entry): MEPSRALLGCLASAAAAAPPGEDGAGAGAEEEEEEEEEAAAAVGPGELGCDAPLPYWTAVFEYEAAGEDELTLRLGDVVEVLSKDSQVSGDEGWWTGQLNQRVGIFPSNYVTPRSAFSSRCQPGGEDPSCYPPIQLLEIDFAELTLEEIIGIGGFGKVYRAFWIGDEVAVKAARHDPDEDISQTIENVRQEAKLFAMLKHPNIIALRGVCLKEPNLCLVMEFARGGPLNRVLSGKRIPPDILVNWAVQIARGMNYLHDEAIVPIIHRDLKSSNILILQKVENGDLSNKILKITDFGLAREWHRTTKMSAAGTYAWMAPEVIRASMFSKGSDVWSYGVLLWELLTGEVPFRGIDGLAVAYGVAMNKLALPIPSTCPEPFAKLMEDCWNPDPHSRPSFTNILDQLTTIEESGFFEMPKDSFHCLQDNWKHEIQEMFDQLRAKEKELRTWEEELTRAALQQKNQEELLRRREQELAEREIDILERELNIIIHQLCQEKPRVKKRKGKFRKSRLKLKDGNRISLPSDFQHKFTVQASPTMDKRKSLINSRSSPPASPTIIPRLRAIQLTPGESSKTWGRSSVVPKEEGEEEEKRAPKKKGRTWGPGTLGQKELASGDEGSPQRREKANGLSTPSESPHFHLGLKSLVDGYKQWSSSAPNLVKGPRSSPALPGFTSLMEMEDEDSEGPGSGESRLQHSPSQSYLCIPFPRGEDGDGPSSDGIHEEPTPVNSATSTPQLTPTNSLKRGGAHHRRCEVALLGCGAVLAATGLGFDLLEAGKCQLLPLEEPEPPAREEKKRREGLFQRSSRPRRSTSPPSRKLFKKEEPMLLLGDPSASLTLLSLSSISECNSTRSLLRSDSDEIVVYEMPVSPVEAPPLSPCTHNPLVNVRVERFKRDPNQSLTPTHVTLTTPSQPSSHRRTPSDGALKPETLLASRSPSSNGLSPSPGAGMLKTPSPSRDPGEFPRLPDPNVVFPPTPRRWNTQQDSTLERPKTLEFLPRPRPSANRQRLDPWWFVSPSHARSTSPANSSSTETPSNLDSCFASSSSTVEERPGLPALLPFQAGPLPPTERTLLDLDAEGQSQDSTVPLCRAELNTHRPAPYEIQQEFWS
Source text: as §2, §3

[5] = target: T2, Irak4 (Homo sapiens, UniProt Q9NWZ3); test: Z'-Lyte FRET kinase assay (Invitrogen), Irak4; conditions: read-out: IC50, activity toward kinase Irak4
T2 construct: purchased Invitrogen (assay run by Invitrogen)
T2 sequence (Q9NWZ3 1-460): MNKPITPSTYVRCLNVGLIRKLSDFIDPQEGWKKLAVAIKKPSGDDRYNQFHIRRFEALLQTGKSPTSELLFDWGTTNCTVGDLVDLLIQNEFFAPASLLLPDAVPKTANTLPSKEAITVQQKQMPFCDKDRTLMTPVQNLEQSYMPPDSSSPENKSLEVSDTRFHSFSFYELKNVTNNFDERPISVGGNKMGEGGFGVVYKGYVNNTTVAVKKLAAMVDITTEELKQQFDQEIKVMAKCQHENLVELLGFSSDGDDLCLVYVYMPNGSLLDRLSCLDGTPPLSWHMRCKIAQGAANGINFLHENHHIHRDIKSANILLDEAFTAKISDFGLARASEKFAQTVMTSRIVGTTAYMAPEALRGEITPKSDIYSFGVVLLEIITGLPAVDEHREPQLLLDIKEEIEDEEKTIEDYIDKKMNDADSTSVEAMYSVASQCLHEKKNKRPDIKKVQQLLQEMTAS
Source text: as §1
Briefly, the Invitrogen kinase assay involves use of a specific peptide substrate optimized for each kinase, containing a fluorophore at each end that make up the FRET pair. The peptide sensitivity to proteolytic cleavage depends on phosphorylation of the peptide. Non-phosphorylated peptide is cleaved by a protease while peptide phosphorylated by the kinase is not cleaved. Cleavage of the peptide disrupts the FRET between the donor (coumarin) and acceptor (fluorescein) fluorophores, resulting in an increase in the ratio of donor emission to acceptor emission. The emission ratio of coumarin to fluorescein is used to assess the reaction progress. The extent of phosphorylation is determined from the emission ratio, which is low when the kinase is active (phosphorylated peptide is not cleaved, FRET pair connected) or higher for inhibited kinase (non-phosphorylated peptide is cleaved, FRET pair separated). Thus, the assay involves a kinase reaction in the presence of varying concentrations of a given compound, a development reaction with site specific protease, and detection of the fluorescent emission ratio of coumarin and fluorscein. […] Reaction conditions for each kinase are determined to provide optimal reaction times, incubation temperature, kinase and ATP concentrations. Test samples are made up in 1× kinase buffer (50 mM HEPES pH 7.5, 50 mM MgCl2, 5 mM EGTA, 0.05% BRIJ-35) and compound at desired concentration prepared in DMSO such that the final DMSO is 1%. […] Typically, assay plates are prepared to 10 μl final volume per sample, adding 2.5 μl of compound at 4× the desired concentration in 4% DMSO (serial dilution of compound provides concentration curve), 5 μl of the desired kinase mixed with Z′-LYTE™ peptide substrate (2× in 2× kinase buffer, final peptide at 2 μM), and 2.5 μl of 4×ATP solution. All kinase except for MAP2K1 were at 10 μM ATP in the kinase reaction, while MAP2K1 was at 100 μM. Samples are mixed and the kinase reaction is incubated 1 hour at room temperature, after which 5 μl of development solution is added and mixed. After incubation for another 1 hour at room temperature, 5 μl of stop reagent is added to each sample and mixed. The fluorescence signals are measured to determine the emission ratio.

[6] = target: T3, Pim1 (Homo sapiens, UniProt P11309); test: AlphaScreen kinase assay, Pim1; conditions: read-out: IC50, activity toward kinase Pim1
T3 construct: P1215.pET29SRI PIM1 E29-K313 HIS WT; made in house
T3 sequence (P11309 with tags, fused parts or gaps): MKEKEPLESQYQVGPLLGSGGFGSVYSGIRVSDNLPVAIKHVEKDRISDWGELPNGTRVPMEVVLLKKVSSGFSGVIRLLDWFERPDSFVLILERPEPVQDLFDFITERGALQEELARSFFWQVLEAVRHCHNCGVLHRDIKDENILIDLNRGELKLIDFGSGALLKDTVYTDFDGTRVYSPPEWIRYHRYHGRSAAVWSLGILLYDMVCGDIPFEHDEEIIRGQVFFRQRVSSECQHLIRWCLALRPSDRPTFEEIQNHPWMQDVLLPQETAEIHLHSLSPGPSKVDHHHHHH
Source text: as §2, §3

[7] = target: T4, p38 (Homo sapiens, UniProt Q16539); test: AlphaScreen kinase assay, p38; conditions: read-out: IC50, activity toward kinase p38
T4 construct: P4292.pET15S P38A M1-S360-X MKK6DD; His6 with thrombin site (N); made in house
T4 sequence (Q16539 with tags, fused parts or gaps): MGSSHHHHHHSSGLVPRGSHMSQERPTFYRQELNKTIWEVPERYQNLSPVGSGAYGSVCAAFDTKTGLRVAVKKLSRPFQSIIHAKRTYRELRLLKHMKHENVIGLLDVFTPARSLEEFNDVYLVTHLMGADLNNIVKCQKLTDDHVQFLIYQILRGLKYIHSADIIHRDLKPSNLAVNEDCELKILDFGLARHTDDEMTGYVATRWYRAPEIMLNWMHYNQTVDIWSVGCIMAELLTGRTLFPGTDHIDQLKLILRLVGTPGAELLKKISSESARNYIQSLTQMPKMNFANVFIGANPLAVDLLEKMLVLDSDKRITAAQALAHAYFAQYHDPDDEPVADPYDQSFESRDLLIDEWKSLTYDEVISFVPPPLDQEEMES

T1 sequence (P09619 33-1106): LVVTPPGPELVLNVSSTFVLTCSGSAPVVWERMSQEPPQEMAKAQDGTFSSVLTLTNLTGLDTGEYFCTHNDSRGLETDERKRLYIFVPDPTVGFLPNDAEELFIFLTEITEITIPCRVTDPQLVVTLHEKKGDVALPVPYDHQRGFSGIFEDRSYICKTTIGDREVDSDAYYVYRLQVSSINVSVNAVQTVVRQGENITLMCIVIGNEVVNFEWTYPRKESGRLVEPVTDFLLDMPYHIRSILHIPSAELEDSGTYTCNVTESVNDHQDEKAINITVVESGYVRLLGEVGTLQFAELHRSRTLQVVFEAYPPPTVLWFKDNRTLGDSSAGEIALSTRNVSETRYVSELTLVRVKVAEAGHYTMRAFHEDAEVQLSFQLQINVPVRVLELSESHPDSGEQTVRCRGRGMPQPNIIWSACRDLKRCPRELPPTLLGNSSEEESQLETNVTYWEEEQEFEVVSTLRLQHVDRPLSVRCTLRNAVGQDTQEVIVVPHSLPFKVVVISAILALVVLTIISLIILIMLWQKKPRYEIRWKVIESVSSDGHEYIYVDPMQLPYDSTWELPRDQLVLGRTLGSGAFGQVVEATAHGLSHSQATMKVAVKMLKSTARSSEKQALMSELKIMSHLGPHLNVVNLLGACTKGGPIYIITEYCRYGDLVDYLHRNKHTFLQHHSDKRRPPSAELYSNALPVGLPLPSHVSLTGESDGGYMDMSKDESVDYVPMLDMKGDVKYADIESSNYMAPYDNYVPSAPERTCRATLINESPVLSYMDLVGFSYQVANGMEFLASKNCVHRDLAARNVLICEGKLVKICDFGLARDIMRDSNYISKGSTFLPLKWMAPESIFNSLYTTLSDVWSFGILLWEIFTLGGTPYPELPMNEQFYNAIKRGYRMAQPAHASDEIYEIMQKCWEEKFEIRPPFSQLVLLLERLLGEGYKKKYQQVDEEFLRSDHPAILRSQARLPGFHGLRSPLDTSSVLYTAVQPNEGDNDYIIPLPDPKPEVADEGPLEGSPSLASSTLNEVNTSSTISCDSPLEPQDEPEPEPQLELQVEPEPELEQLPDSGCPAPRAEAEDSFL

SMILES: O=C(Nc1ccc(Cc2c[nH]c3ncccc23)cc1)Nc1cccc(C(F)(F)F)c1 [Compound P-0262, 1-[4-(1H-Pyrrolo[2,3-b]pyridin-3-ylmethyl)-phenyl]-3-(3-trifluoromethyl-phenyl)-urea]
IC50 [1]: ≤ 10 µM

SMILES: CS(=O)(=O)c1cccc(-c2cnc3[nH]cc(C(O)c4c(F)ccc(F)c4F)c3c2)c1 (stereo not shown) [Compound P-0020]
IC50 [5]: ≤ 10 µM

SMILES: CCCS(=O)(=O)Nc1ccc(F)c(C(=O)c2c[nH]c3ncc(OC)cc23)c1F [Compound P-0806, Propane-1-sulfonic acid [2,4-difluoro-3-(5-methoxy-1H-pyrrolo[2,3-b]pyridine-3-carbonyl)-phenyl]-amide]
IC50 [3]: ≤ 10 µM

SMILES: OCCOc1ccc(F)c(Cc2c[nH]c3ncc(-c4cccnc4)cc23)c1F [Compound P-1394, 2-[2,4-Difluoro-3-(5-pyridin-3-yl-1H-pyrrolo[2,3-b]pyridin-3-ylmethyl)-phenoxy]-ethanol]
IC50 [2]: ≤ 10 µM

SMILES: O=C(c1ccc(O)cc1)c1c[nH]c2ncc(-c3cccs3)cc12 [Compound P-0024, (4-Hydroxy-phenyl)-(5-thiophen-2-yl-1H-pyrrolo[2,3-b]pyridin-3-yl)-methanone]
IC50 [6]: ≤ 10 µM

The next lines start with the values.

IC50 [2]: ≤ 10 µM | IC50 [3]: ≤ 10 µM | IC50 [4]: ≤ 10 µM
SMILES: COc1cccc(C(=O)c2c[nH]c3ncc(-c4cccc(NC(C)=O)c4)cc23)c1F [Compound P-1336, N-{3-[3-(2-Fluoro-3-methoxy-benzoyl)-1H-pyrrolo[2,3-b]pyridin-5-yl]-phenyl}-acetamide]

IC50 [5]: ≤ 10 µM
SMILES: Nc1cccc(-c2cnc3[nH]cc(C(=O)c4cc(O)ccc4F)c3c2)c1 [Compound P-0002]

IC50 [1]: ≤ 10 µM
SMILES: CCCS(=O)(=O)Nc1ccc(F)c(C(=O)c2c[nH]c3ncc(-c4cccnc4)cc23)c1F [Compound P-0088, Propane-1-sulfonic acid [2,4-difluoro-3-(5-pyridin-3-yl-1H-pyrrolo[2,3-b]pyridine-3-carbonyl)-phenyl]-amide]

IC50 [6]: ≤ 10 µM
SMILES: COc1ccc(F)c(C(=O)c2c[nH]c3ncc(-c4cccnc4)cc23)c1 [Compound P-0090]

IC50 [7]: ≤ 10 µM
SMILES: O=C(O)/C=C/c1cccc(-c2cnc3[nH]cc(C(=O)c4cc(O)ccc4F)c3c2)c1 [Compound P-0010]

IC50 [4]: ≤ 10 µM
SMILES: COc1cc(OC)cc(C(=O)c2c[nH]c3ncc(-c4cccc(NS(C)(=O)=O)c4)cc23)c1 [Compound P-1426, N-{3-[3-(3,5-Dimethoxy-benzoyl)-1H-pyrrolo[2,3-b]pyridin-5-yl]-phenyl}-methanesulfonamide]

Source: patent US8415469B2, “Compounds and methods for kinase modulation, and indications therefor” (Plexxikon Inc., priority 2005, dated 2013)
